Data taken from patent US8969335B2, “Benzonitrile derivatives as kinase inhibitors” (MERCK PATENT GmbH, priority 2011, dated 2015).
pIC50: −log10 of the molar value. Read-outs that look alike come from different tables or passages of the source.

Tests used:
[1] = test system: TBK1 + IKKε (phospho-IRF3 @ Ser 386, MDA-MB-468 cells); assay: TBK1 + IKKε cell assay: dose response inhibition of phospho-IRF3 @ Ser 386 in MDA-MB-468 cells; format: cell-based; conditions: Homo sapiens
IKKε = IKKε (Homo sapiens (Human), UniProt Q14164); assay: IKKε kinase assay (384-well flashplate assay); format: biochemical; conditions: 1 nM IKKε, 10 μM ATP, 30° C., 2 hours; read-out: IKKε enzyme assay IC50
Description: Test for the Inhibition of IKKε
IKKε—Kinase Assay (IKKepsilon)
The kinase assay is performed as 384-well flashplate assay (for example for Topcount measurement).
1 nM IKKε, 800 nM biotinylated IκBα(19-42) peptide (Biotin-C6-C6-[…]) and 10 μM ATP (spiked with 0.3 μCi of ^33P-ATP/well) are incubated at 30° C. for 2 hours in a total volume of 50 μl (10 mM MOPS, 10 mM Mg acetate, 0.1 mM EGTA, 1 mM dithiothreitol, 0.02% of Brij35, 0.1% of BSA, 0.1% of BioStab, pH 7.5) with or without test compound. The reaction is stopped using 25 μl of 200 mM EDTA. After 30 min at room temperature, the liquid is removed, and each well is washed three times with 100 μl of 0.9% sodium chloride solution. Non-specific reaction is determined in the presence of 3 μM MSC2119074 (BX-795). The radioactivity is measured using a Topcount (PerkinElmer). The results (for example IC50 values) are calculated using program tools provided by the IT Department (for example AssayExplorer, Symyx).

[2] = target: TANK binding kinase (TBK1) (Homo sapiens (Human), UniProt Q9UHD2); assay: TBK1 enzyme assay (384-well flashplate kinase assay); format: biochemical; conditions: 0.6 nM TBK1, 10 μM ATP, 30° C., 120 min
[3] = poly(I:C) stimulation, nuclear phospho-IRF3, read-out: TBK1 + IKKε cell assay IC50

TANK binding kinase (TBK1), sequence (Q9UHD2 whole entry): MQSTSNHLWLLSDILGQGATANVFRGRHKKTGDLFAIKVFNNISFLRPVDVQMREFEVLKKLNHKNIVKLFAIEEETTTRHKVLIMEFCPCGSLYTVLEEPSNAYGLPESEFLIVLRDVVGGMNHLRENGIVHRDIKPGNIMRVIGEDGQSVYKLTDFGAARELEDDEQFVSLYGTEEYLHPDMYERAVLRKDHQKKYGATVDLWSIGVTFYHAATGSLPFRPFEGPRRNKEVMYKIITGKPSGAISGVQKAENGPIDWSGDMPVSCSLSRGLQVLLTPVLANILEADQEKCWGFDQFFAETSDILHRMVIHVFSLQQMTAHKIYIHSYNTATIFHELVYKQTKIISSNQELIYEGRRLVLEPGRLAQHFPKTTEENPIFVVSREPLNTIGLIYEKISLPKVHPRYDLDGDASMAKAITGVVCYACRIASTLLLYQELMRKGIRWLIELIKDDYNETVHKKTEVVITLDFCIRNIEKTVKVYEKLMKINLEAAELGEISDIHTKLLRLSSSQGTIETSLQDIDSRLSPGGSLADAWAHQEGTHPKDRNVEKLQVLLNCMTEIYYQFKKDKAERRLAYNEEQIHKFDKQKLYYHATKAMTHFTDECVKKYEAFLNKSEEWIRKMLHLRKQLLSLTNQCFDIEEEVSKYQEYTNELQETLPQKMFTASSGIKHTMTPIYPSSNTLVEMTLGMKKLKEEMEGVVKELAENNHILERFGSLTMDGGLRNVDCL
IKKε, sequence (Q14164 whole entry): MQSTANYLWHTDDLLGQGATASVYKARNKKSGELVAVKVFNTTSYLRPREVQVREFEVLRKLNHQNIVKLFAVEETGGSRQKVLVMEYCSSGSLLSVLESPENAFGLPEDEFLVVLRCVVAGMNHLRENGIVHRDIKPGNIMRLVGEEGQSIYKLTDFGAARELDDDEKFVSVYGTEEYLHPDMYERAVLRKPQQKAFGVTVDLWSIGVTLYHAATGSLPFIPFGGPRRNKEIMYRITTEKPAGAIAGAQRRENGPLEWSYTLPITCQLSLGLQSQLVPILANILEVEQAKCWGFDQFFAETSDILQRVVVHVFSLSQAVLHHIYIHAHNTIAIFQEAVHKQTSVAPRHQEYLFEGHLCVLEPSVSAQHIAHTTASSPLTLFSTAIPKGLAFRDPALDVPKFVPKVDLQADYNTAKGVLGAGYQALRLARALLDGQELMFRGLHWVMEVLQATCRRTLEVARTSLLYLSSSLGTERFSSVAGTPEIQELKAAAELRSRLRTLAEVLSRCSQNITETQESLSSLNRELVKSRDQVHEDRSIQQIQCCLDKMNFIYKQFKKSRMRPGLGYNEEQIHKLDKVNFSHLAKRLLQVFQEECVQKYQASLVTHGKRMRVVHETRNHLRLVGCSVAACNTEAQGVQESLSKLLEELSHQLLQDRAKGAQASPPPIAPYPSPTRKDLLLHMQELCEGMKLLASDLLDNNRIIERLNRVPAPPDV

Row | SMILES | pIC50 ([1]; reference inhibitor range, read-out: IC50 of reference inhibitor in phospho-IRF3 cell assay) | pIC50 (IKKε) | pIC50 [1, 3] | pIC50 [2]
1 | O=C(NCCCNc1nc(Nc2cccc(NC(=O)N3CCCC3)c2)ncc1I)c1cccs1 [BX-795, reference compound] | 6.10 to 6.70 |  |  | 
2 | CN1CCC(n2cc(Nc3cc(-c4ccc(OC5CCOCC5)c(C#N)c4)ccn3)cn2)CC1 [Compound A2, 5-{2-[1-(1-Methylpiperidin-4-yl)-1H-pyrazol-4-yl-amino]pyridin-4-yl}-2-(tetrahydropyran-4-yloxy)benzonitrile] |  | 7.70 | 6.02 | 7.08
3 | N#Cc1cc(-c2ccnc(Nc3ccc(-c4cccnc4)cn3)c2)ccc1OC1CCOCC1 [Compound A3, 5-[2-([3,3′]Bipyridinyl-6-ylamino)pyridin-4-yl]-2-(tetrahydropyran-4-yloxy)benzonitrile] |  | 6.43 | 5.48 | 6.59
4 | Cc1cc(Nc2cc(-c3ccc(OC4CCOCC4)c(C#N)c3)ccn2)no1 [Compound A4, 5-[2-(5-Methylisoxazol-3-ylamino)pyridin-4-yl]-2-(tetrahydropyran-4-yloxy)benzonitrile] |  | 7.42 | 5.18 | 7.47
5 | Cn1ccc(Nc2cc(-c3ccc(OC4CCOCC4)c(C#N)c3)ccn2)n1 [Compound A5, 5-[2-(1-Methyl-1H-pyrazol-3-ylamino)pyridin-4-yl]-2-(tetrahydropyran-4-yloxy)benzonitrile] |  | 6.96 | 5.54 | 7.01
6 | N#Cc1cc(-c2ccnc(Nc3ccc(N4CCOCC4)cn3)c2)ccc1OC1CCOCC1 [Compound A7, 5-[2-(5-Morpholin-4-ylpyridin-2-ylamino)pyridin-4-yl]-2-(tetrahydropyran-4-yloxy)benzonitrile] |  | 7.82 | 6.46 | 8.10
7 | N#Cc1cc(-c2ccnc(Nc3ccc(-c4cn[nH]c4)cn3)c2)ccc1OC1CCOCC1 [Compound A9, 5-{2-[5-(1H-Pyrazol-4-yl)pyridin-2-ylamino]pyridin-4-yl}-2-(tetrahydropyran-4-yloxy)benzonitrile] |  | 7.00 | 5.52 | 6.92
8 | CC(C)(C)c1cc(Nc2cc(-c3ccc(OC4CCOCC4)c(C#N)c3)ccn2)n[nH]1 [Compound A10, 5-[2-(5-tert-Butyl-1H-pyrazol-3-ylamino)pyridin-4-yl]-2-(tetrahydropyran-4-yloxy)benzonitrile] |  | 7.37 | 5.92 | 7.68
9 | N#Cc1ccc(Nc2cc(-c3ccc(OC4CCOCC4)c(C#N)c3)ccn2)nc1 [Compound A11, 6-{4-[3-Cyano-4-(tetrahydropyran-4-yloxy)phenyl]pyridin-2-ylamino}nicotinonitrile] |  | 6.62 | 5.28 | 6.60
10 | N#Cc1cc(-c2ccnc(Nc3cc(C4CC4)n[nH]3)c2)ccc1OC1CCOCC1 [Compound A12, 5-[2-(5-Cyclopropyl-2H-pyrazol-3-ylamino)pyridin-4-yl]-2-(tetrahydropyran-4-yloxy)benzonitrile] |  | 7.60 | 5.89 | 7.52
11 | N#Cc1cc(-c2ccnc(Nc3cnn(CC(F)F)c3)c2)ccc1OC1CCOCC1 [Compound A20, 5-{2-[1-(2,2-Difluoroethyl)-1H-pyrazol-4-ylamino]pyridin-4-yl}-2-(tetrahydropyran-4-yloxy)benzonitrile] |  | 7.29 | 5.32 | 7.26
12 | N#Cc1cc(-c2ccnc(Nc3cnn(CCC4CCNCC4)c3)c2)ccc1OC1CCOCC1 [Compound A21, 5-{2-[1-(2-Piperidin-4-ylethyl)-1H-pyrazol-4-ylamino]pyridin-4-yl}-2-(tetrahydropyran-4-yloxy)benzonitrile] |  | 7.43 | 5.28 | 7.15
13 | N#Cc1cc(-c2ccnc(Nc3cnn(CCN4CCOCC4)c3)c2)ccc1OC1CCOCC1 [Compound A22, 5-{2-[1-(2-Morpholin-4-ylethyl)-1H-pyrazol-4-ylamino]pyridin-4-yl}-2-(tetrahydropyran-4-yloxy)benzonitrile] |  | 6.82 | 5.02 | 7.00
14 | COCCCn1cc(Nc2cc(-c3ccc(OC4CCOCC4)c(C#N)c3)ccn2)cn1 [Compound A23, 5-{2-[1-(3-Methoxypropyl)-1H-pyrazol-4-ylamino]pyridin-4-yl}-2-(tetrahydropyran-4-yloxy)benzonitrile] |  | 6.80 | 5.11 | 6.92
15 | N#Cc1cc(-c2ccnc(Nc3ccc(CN4CC5(COC5)C4)cn3)c2)ccc1OC1CCOCC1 [Compound A88, 5-{2-[5-(2-oxa-6-azaspiro[3.3]hept-6-ylmethyl)pyridin-2-yl-amino]pyridin-4-yl}-2-(tetrahydropyran-4-yloxy)benzonitrile] |  | 7.35 |  | 7.39
16 | N#Cc1cc(-c2ccnc(Nc3nccc(C4CCNCC4)n3)c2)ccc1OC1CCOCC1 [Compound A89, 5-[2-(4-piperidin-4-ylpyrimidin-2-ylamino)pyridin-4-yl]-2-(tetrahydropyran-4-yloxy)benzonitrile] |  | 6.92 |  | 6.85
17 | N#Cc1cc(-c2ccnc(Nc3cncc(C4=CCCCO4)n3)c2)ccc1OC1CCOCC1 [Compound A92, 5-{2-[6-(5,6-dihydro-4H-pyran-2-yl)pyrazin-2-ylamino]pyridin-4-yl}-2-(tetrahydropyran-4-yloxy)benzonitrile] |  | 6.03 |  | 6.07
18 | Cc1coc(Nc2nccc(-c3ccc(OC4CCOCC4)c(C#N)c3)n2)n1 [Compound A93, 5-[2-(4-methyloxazol-2-ylamino)pyrimidin-4-yl]-2-(tetrahydropyran-4-yloxy)benzonitrile] |  | 6.51 |  | 6.26
19 | N#Cc1cc(-c2ccnc(Nc3ccc(C4CCOCC4)nn3)c2)ccc1OC1CCOCC1 [Compound A100, 2-(tetrahydropyran-4-yloxy)-5-{2-[6-(tetrahydropyran-4-yl)pyridazin-3-yl-amino]pyridin-4-yl}benzonitrile] |  | 7.41 |  | 7.85

Next, values leading:

Row | pIC50 ([1]; reference inhibitor range, read-out: IC50 of reference inhibitor in phospho-IRF3 cell assay) | pIC50 (IKKε) | pIC50 [1, 3] | pIC50 [2] | SMILES
20 |  | 6.37 |  | 6.46 | N#Cc1cc(-c2ccnc(Nc3nccnc3CO)c2)ccc1OC1CCOCC1 [Compound A102, 5-[2-(3-hydroxymethylpyrazin-2-ylamino)pyridin-4-yl]-2-(tetrahydropyran-4-yloxy)benzonitrile]
21 |  | 7.02 |  | 6.34 | N#Cc1cc(-c2ccnc(Nc3cn[nH]c3)c2)ccc1OCC1CC1 [Compound A104, 2-cyclopropylmethoxy-5-[2-(1H-pyrazol-4-ylamino)pyridin-4-yl]-benzonitrile]
22 |  | 7.19 |  | 6.66 | COCCn1cc(Nc2cc(-c3ccc(OCC4CC4)c(C#N)c3)ccn2)cn1 [Compound A105, 2-cyclopropylmethoxy-5-{2-[1-(2-methoxyethyl)-1H-pyrazol-4-ylamino]-pyridin-4-yl}benzonitrile]
23 |  | 6.85 |  | 6.42 | N#Cc1cc(-c2ccnc(Nc3cn[nH]c3)c2)ccc1OCC1CCC1 [Compound A109, 2-cyclobutylmethoxy-5-[2-(1H-pyrazol-4-ylamino)pyridin-4-yl]benzonitrile]
24 |  | 7.09 |  | 6.31 | COCCn1cc(Nc2cc(-c3ccc(OCC4CCC4)c(C#N)c3)ccn2)cn1 [Compound A110, 2-cyclobutylmethoxy-5-{2-[1-(2-methoxyethyl)-1H-pyrazol-4-ylamino]-pyridin-4-yl}benzonitrile]
25 |  | 6.70 |  | 7.05 | N#Cc1cc(-c2ccnc(Nc3ccc(CO)cn3)c2)ccc1OCC1CCC1 [Compound A111, 2-cyclobutylmethoxy-5-[2-(5-hydroxymethylpyridin-2-ylamino)pyridin-4-yl]benzonitrile]
26 |  | 6.19 |  | 5.26 | COCCn1cc(Nc2cc(-c3ccc(OCC4CCN(C(C)=O)CC4)c(C#N)c3)ccn2)cn1 [Compound A114, 2-(1-acetylpiperidin-4-ylmethoxy)-5-{2-[1-(2-methoxyethyl)-1H-pyrazol-4-ylamino]pyridin-4-yl}benzonitrile]
27 |  | 5.96 |  | 5.82 | CC(=O)N1CCC(COc2ccc(-c3ccnc(Nc4ccc(CO)cn4)c3)cc2C#N)CC1 [Compound A115, 2-(1-acetylpiperidin-4-ylmethoxy)-5-[2-(5-hydroxymethylpyridin-2-ylamino)pyridin-4-yl]benzonitrile]
28 |  | 6.72 |  | 5.18 | CC(=O)N1CCC(COc2ccc(-c3ccnc(Nc4cnn(C5CCNCC5)c4)c3)cc2C#N)CC1 [Compound A116, 2-(1-acetylpiperidin-4-ylmethoxy)-5-[2-(1-piperidin-4-yl-1H-pyrazol-4-ylamino)pyridin-4-yl]benzonitrile]
29 |  | 6.21 |  | 6.09 | CC(=O)N1CCC(COc2ccc(-c3ccnc(Nc4ccc(N5CCOCC5)cn4)c3)cc2C#N)CC1 [Compound A117, 2-(1-acetylpiperidin-4-ylmethoxy)-5-[2-(5-morpholin-4-ylpyridin-2-ylamino)pyridin-4-yl]benzonitrile]
